Experimental data published in patent publication EP4707280A1, “1,4-CINEOLE DERIVATIVE AND INTERMEDIATE THEREOF, HERBICIDE CONTAINING SAID DERIVATIVE AS ACTIVE INGREDIENT, METHOD FOR USING HERBICIDE, AND METHOD FOR PREPARING AGROCHEMICAL COMPOSITION” (HOKKO CHEMICAL INDUSTRY CO., LTD., priority 2023, dated 2024).

What was measured:
Format in all cases: in vivo
[1] = test system: Echinochloa crus-galli var. formosensis; test: Test Example 1: herbicidal effect test by soil application in paddy rice; conditions: Echinochloa crus-galli, soil, 336 h; 120 g active ingredient per 10 ares; applied immediately after sowing, flooded pots; 14 days after application; read-out: weed inhibition rate
Outline: (§1)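 Paddy soil in Wagner pots (1/10,000 acre), fertilized and puddled; 30 seeds per species sown at 0–1 cm, flooded to ~3 cm, greenhouse. Water-diluted emulsifiable concentrate dropped onto flooded pots right after sowing at 120 g active ingredient per 10 ares.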

Scirpus juncoides [2] = test: as above; conditions: Schoenoplectiella juncoides, soil, 336 h; 120 g active ingredient per 10 ares; applied immediately after sowing, flooded pots; 14 days after application; read-out: weed inhibition rate
Outline: as §1

Monochoria vaginalis [3] = test: as above; conditions: Pontederia vaginalis, soil, 336 h; 120 g active ingredient per 10 ares; applied immediately after sowing, flooded pots; 14 days after application; read-out: weed inhibition rate
Outline: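 Pre-emergence test in puddled, flooded paddy soil (about 3 cm water), 30 seeds per weed sown at 0–1 cm depth in a glass greenhouse. Emulsifiable concentrate diluted in water and dropped onto the pots straight after sowing at 120 g a.i. per 10 ares. Weed inhibition (%) scored at 14 days, in duplicate.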

[4] = test system: Echinochloa crus-galli var. formosensis; test: Test Example 2: herbicidal effect test by application during growth period of paddy rice; conditions: Echinochloa crus-galli; 120 g per 10 ares; applied seven days after sowing, flooded pots; 14 days after application; read-out: weed inhibition rate
Outline: (§2)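 Paddy soil in flooded pots (water depth about 3 cm) was sown with weed seeds and kept in a glass greenhouse. Seven days after sowing, a diluted emulsifiable concentrate was applied by dropper at 120 g active ingredient per 10 ares. Weed inhibition was evaluated 14 days after application, in duplicate.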

Monochoria vaginalis [5] = test: as above; conditions: Pontederia vaginalis; 120 g per 10 ares; applied seven days after sowing, flooded pots; 14 days after application; read-out: weed inhibition rate
Outline: as §2

Scirpus juncoides [6] = test: as above; conditions: Schoenoplectiella juncoides; 120 g per 10 ares; applied seven days after sowing, flooded pots; 14 days after application; read-out: weed inhibition rate
Outline: as §2

Digitaria ciliaris [7] = test: Test Example 4: herbicidal effect test by stem and leaf treatment in upland field; conditions: Digitaria ciliaris; 120 g per 10 ares; sprayed seven days after sowing, upland soil; 14 days after application; read-out: weed inhibition rate
Echinochloa crus-galli = test: Test Example 8: herbicidal effect test by stem and leaf treatment in upland field (low dose); conditions: Echinochloa crus-galli; 7.5 g per 10 ares; sprayed seven days after sowing, upland soil; 14 days after application; read-out: weed inhibition rate
Digitaria ciliaris [8] = test: as above; conditions: Digitaria ciliaris; 7.5 g per 10 ares; sprayed seven days after sowing, upland soil; 14 days after application; read-out: weed inhibition rate

CC(C)[C@]12C[C@@H](OCc3ccc(Cl)cc3)[C@](C)(C[C@@H]1Br)O2 [1-693, (1S,2R,4R,5S)-5-bromo-2-[(4-chlorophenyl)methoxy]-1-methyl-4-isopropyl-7-oxabicyclo[2.2.1]heptane]
≥ 80%: pest or weed control at 1200 g/ha [1] | pest or weed control at 1200 g/ha (Scirpus juncoides [2]) | pest or weed control at 1200 g/ha (Monochoria vaginalis [3]) | inhibition at 1200 g/ha [4] | inhibition at 1200 g/ha (Monochoria vaginalis [5]) | inhibition at 1200 g/ha (Scirpus juncoides [6]) | inhibition at 1200 g/ha (Digitaria ciliaris [7]) | inhibition at 75 g/ha (Echinochloa crus-galli)

CC(C)[C@]12C[C@@H](OCc3c(Cl)cccc3Cl)[C@](C)(CC1=O)O2 [2-26, (1R,4S,5R)-5-((2,6-dichlorobenzyl)oxy)-1-isopropyl-4-methyl-7-oxabicyclo[2.2.1]heptan-2-one]
≥ 80%: pest or weed control at 1200 g/ha [1] | pest or weed control at 1200 g/ha (Scirpus juncoides [2]) | pest or weed control at 1200 g/ha (Monochoria vaginalis [3]) | inhibition at 1200 g/ha [4] | inhibition at 1200 g/ha (Digitaria ciliaris [7]) | inhibition at 75 g/ha (Digitaria ciliaris [8])

CCC1C[C@]2(C)O[C@@]1(C(C)C)C[C@H]2OCc1ccccc1F (stereo partly drawn) [1-126, (1R,4S,5R)-2-ethyl-5-[(2-fluorobenzyl)oxy]-1-isopropyl-4-methyl-7-oxabicyclo[2.2.1]heptane]
≥ 80%: pest or weed control at 1200 g/ha [1] | pest or weed control at 1200 g/ha (Scirpus juncoides [2]) | pest or weed control at 1200 g/ha (Monochoria vaginalis [3]) | inhibition at 1200 g/ha [4] | inhibition at 1200 g/ha (Digitaria ciliaris [7]) | inhibition at 75 g/ha (Digitaria ciliaris [8]) | inhibition at 75 g/ha (Echinochloa crus-galli)

CC(C)[C@]12C[C@@H](OCc3ccc(Cl)cc3Cl)[C@](C)(C[C@@H]1Br)O2 [1-717, (1S,2R,4R,5S)-5-bromo-2-[(2,4-dichlorophenyl)methoxy]-1-methyl-4-isopropyl-7-oxabicyclo[2.2.1]heptane]
≥ 80%: pest or weed control at 1200 g/ha [1] | pest or weed control at 1200 g/ha (Scirpus juncoides [2]) | pest or weed control at 1200 g/ha (Monochoria vaginalis [3]) | inhibition at 1200 g/ha [4] | inhibition at 1200 g/ha (Monochoria vaginalis [5]) | inhibition at 1200 g/ha (Scirpus juncoides [6]) | inhibition at 1200 g/ha (Digitaria ciliaris [7]) | inhibition at 75 g/ha (Digitaria ciliaris [8]) | inhibition at 75 g/ha (Echinochloa crus-galli)

CCOC(C)O[C@H]1C[C@]2(C)O[C@@]1(C(C)C)C[C@H]2OCc1c(F)cccc1F (stereo partly drawn) [1-223, (1S,2R,4R,5S)-2-((2,6-difluorobenzyl)oxy)-5-(1-ethoxyethoxy)-4-isopropyl-1-methyl-7-oxabicyclo[2.2.1]heptane]
≥ 80%: pest or weed control at 1200 g/ha [1] | pest or weed control at 1200 g/ha (Scirpus juncoides [2]) | pest or weed control at 1200 g/ha (Monochoria vaginalis [3]) | inhibition at 1200 g/ha [4] | inhibition at 1200 g/ha (Scirpus juncoides [6]) | inhibition at 1200 g/ha (Digitaria ciliaris [7]) | inhibition at 75 g/ha (Echinochloa crus-galli)

CC(C)[C@]12C[C@@H](OCc3c(F)cccc3Br)[C@](C)(C[C@@H]1Br)O2 [1-1600, (1S,2R,4R,5S)-5-bromo-2-[(2-bromo-6-fluorophenyl)methoxy]-1-methyl-4-isopropyl-7-oxabicyclo[2.2.1]heptane]
≥ 80%: pest or weed control at 1200 g/ha [1] | pest or weed control at 1200 g/ha (Scirpus juncoides [2]) | pest or weed control at 1200 g/ha (Monochoria vaginalis [3]) | inhibition at 1200 g/ha [4] | inhibition at 1200 g/ha (Monochoria vaginalis [5]) | inhibition at 1200 g/ha (Scirpus juncoides [6]) | inhibition at 1200 g/ha (Digitaria ciliaris [7]) | inhibition at 75 g/ha (Digitaria ciliaris [8]) | inhibition at 75 g/ha (Echinochloa crus-galli)

Cc1ccc(CO[C@@H]2C[C@]3(C(C)C)O[C@@]2(C)C[C@@H]3Br)cc1 [1-681, (1S,2R,4R,5S)-5-bromo-1-methyl-2-[(4-methylphenyl)methoxy]-4-isopropyl-7-oxabicyclo[2.2.1]heptane]
≥ 80%: pest or weed control at 1200 g/ha [1] | pest or weed control at 1200 g/ha (Scirpus juncoides [2]) | pest or weed control at 1200 g/ha (Monochoria vaginalis [3]) | inhibition at 1200 g/ha [4] | inhibition at 1200 g/ha (Monochoria vaginalis [5]) | inhibition at 1200 g/ha (Scirpus juncoides [6]) | inhibition at 1200 g/ha (Digitaria ciliaris [7]) | inhibition at 75 g/ha (Digitaria ciliaris [8]) | inhibition at 75 g/ha (Echinochloa crus-galli)

CCC1C[C@]2(C)O[C@@]1(C(C)C)C[C@H]2OCc1ccccc1C (stereo partly drawn) [1-123, (1R,4S,5R)-2-ethyl-1-isopropyl-4-methyl-5-((2-methylbenzyl)oxy)-7-oxabicyclo[2.2.1]heptane]
≥ 80%: pest or weed control at 1200 g/ha [1] | pest or weed control at 1200 g/ha (Monochoria vaginalis [3]) | inhibition at 1200 g/ha [4] | inhibition at 1200 g/ha (Digitaria ciliaris [7]) | inhibition at 75 g/ha (Digitaria ciliaris [8]) | inhibition at 75 g/ha (Echinochloa crus-galli)

CC(C)[C@]12C[C@@H](OCc3c(F)cccc3F)[C@](C)(CC1C)O2 (stereo partly drawn) [1-111, (1S,2R,4R)-2-((2,6-difluorobenzyl)oxy)-4-isopropyl-1,5-dimethyl-7-oxabicyclo[2.2.1]heptane]
≥ 80%: pest or weed control at 1200 g/ha [1] | pest or weed control at 1200 g/ha (Scirpus juncoides [2]) | pest or weed control at 1200 g/ha (Monochoria vaginalis [3]) | inhibition at 1200 g/ha [4] | inhibition at 1200 g/ha (Monochoria vaginalis [5]) | inhibition at 1200 g/ha (Scirpus juncoides [6]) | inhibition at 1200 g/ha (Digitaria ciliaris [7]) | inhibition at 75 g/ha (Digitaria ciliaris [8]) | inhibition at 75 g/ha (Echinochloa crus-galli)
